# Reference: patent US10973777B2, “Methods for treatment of interstitial cystitis” (Panag Pharma Inc., priority 2017, dated 2021)
# “Also recorded” adds a separate entry of the source.
# What was measured:
# [1] = tested on: NGF-induced bladder hyper-reflexia; details: rats; systemic administration; cited from earlier work
# LPS-induced cystitis [2] = assay: Local bladder inflammation model, Example 2 (instillation), intravital microscopy of the bladder; assay type: in vivo, female BALB/c mice; details: LPS 150 μg/ml instilled 30 min, then instillation, BCP 100 mg/kg; for leukocyte rolling in bladder venules: FIG. 10; for leukocyte adhesion in bladder venules: FIGS. 9 and 12; for capillary perfusion quantified through functional capillary density (FCD): FIGS. 11 and 13
# LPS-induced cystitis [3] = assay: Local bladder inflammation model, Example 4 (oral Beta-C alone or with MSM), intravital microscopy; assay type: in vivo, female BALB/c mice; details: for leukocyte adhesion in bladder venules: FIGS. 14, 16; for capillary perfusion quantified through functional capillary density (FCD): FIGS. 15, 17
# Procedure: Laparotomy was then performed to gain access to the bladder and to have a visual confirmation of bladder instillation success. […] This was then followed by an insertion of a P10 catheter into the urethra. […] LPS solution (150 μg/ml) was slowly instilled and held in the bladder for 30 minutes. The animal was then rotated on the heating pad at a halfway point to ensure that all sides of bladder were equally exposed to LPS.
# Animals and local bladder inflammation model were as described hereinabove in Example 2. The groups were as follows:
# In the oral gavage groups, the mice were treated with 100 mg/kg beta-C or 100 mg/kg beta-C in 100 mg/kg methylsulfonylmethane (MSM) by gavage. In groups other than the Healthy Animal Control administered oral beta-C, the administration was 60 minutes prior to LPS exposure. LPS (local) was provided as detailed hereinabove in Example 2. Intravesical MSM was provided similar to as detailed hereinabove in Example 1 for DMSO. Leukocyte adherence, leukocyte rolling and functional capillary density were measured using the techniques as described hereinabove in Example 2. Results were assessed using the statistical methods described hereinabove in Example 2.
# LPS-induced cystitis [4] = assay: Pain assessment scoring (behavioural), Example 5; assay type: in vivo, female BALB/c mice
# Procedure: (§1) Studies were carried out to investigate the anesthetic effect of oral administration of Beta-C. Animals and local bladder inflammation model were as described hereinabove in Example 2. The groups were as follows:
# (§2) In the oral gavage groups, the mice were treated with 100 mg/kg beta-C by gavage. In the LPS group administered oral beta-C, the administration was 60 minutes prior to LPS exposure. LPS (local) was provided as detailed hereinabove in Example 2.
# Healthy animals were scored behaviourally to set an individual baseline for each specimen. Animals were then anesthetized with isoflurane and given LPS instillation to induce cystitis-like conditions in bladder. After the induction, animals were then woken up and allowed to normally explore/feed themselves in their cage under observation. Changes in behaviour and appearance (i.e. breathing rate, posture, motor activity, eye opening) were then scored again. Each behavioural parameter received a possible maximum score of 10, totaling to a possible maximum of 40. The minimum score possible is a 0, which implies that the parameter is unaffected as a pre-existing condition. Breathing Rate—each decrease in cycle warrants an increase in score. Opening of the eyes—0 complete opening, 5 half opening, 10 fully closed, and 2 and 7 are intermediate positions. Posture—no change is 0, full rounded back OR limp is 10. Intermediate postures gain intermediate scores. Motor activity—activity (exploring, moving, grooming) within 20 seconds. e.g. no movement for 10 seconds (=50%)=5 points; no movement for 2 seconds (=10%)=1 point. The scoring system is based on that reported by Eschalier et al.^37 but has the additional parameter of motor activity.
# LPS-induced cystitis [5] = assay: Electronic von Frey aesthesiometry, Example 5; assay type: in vivo, female BALB/c mice; details: oral BCP 100 mg/kg 60 minutes prior to LPS; T0 vs T1; FIG. 26
# Procedure: as §1, §2
# This was a quantified pain assessment that measures the amount of force applied in grams, before an animal reacts (e.g. withdraws) to the noxious stimulus. This quantification allows for accurate detection of pain relief effectiveness of a treatment. Healthy animals were scored before any treatments or cystitis induction to set an individual baseline for each specimen. The animals were also scored after the cystitis was induced and the treatment effect could be measured. Each individual animal was compared to itself before the induction, as well as a summarized group comparison was performed.
# [6] = tested on: inflammatory and neuropathic pain; details: mouse models of inflammatory and neuropathic pain; cited from earlier work
# [7] = compared with procaine; cited from earlier work
# LPS-induced cystitis [8] = assay: Systemic (endotoxemia-induced) bladder inflammation model, intravital microscopy of the bladder; details: LPS 10 mg/kg i.p.
# severe IC = details: patients with severe IC; intravesical DMSO; cited from earlier work
# LPS-induced cystitis [9] = assay: Local (endotoxin-induced) bladder inflammation model, Example 1, intravital microscopy of the bladder; details: LPS 100 μg/ml instilled 30 min, then drug instillation (DMSO 40%)
# interstitial cystitis [10] = details: clinical case studies for IC; cited from earlier work
# interstitial cystitis [11] = details: patients with IC; oral therapy; cited from earlier work
# [12] = healthy animals (no LPS) administered oral Beta-C 100 mg/kg
compound,measurement,setting,value
"CCCCC/C=C\C/C=C\C/C=C\C/C=C\CCCC(=O)NCCO [AEA, N-arachidonoylethanolamine]",NGF-induced bladder hyper-reflexia and reduction of micturition threshold,[1],attenuated
"C=C1CC/C=C(\C)CC[C@@H]2[C@@H]1CC2(C)C [Beta-C, beta-caryophyllene]",leukocyte rolling in bladder venules,LPS-induced cystitis [2],restored the level of leukocyte levels to that of control animals
same,leukocyte adhesion in bladder venules,LPS-induced cystitis [2],significantly decreased the number of adhering leukocytes back to the level of healthy control animals
same,leukocyte adhesion in bladder venules,LPS-induced cystitis [2]; listed as BCP,decrease in leukocyte adherence comparable to groups instilled with various levels of DMSO
same,capillary perfusion quantified through functional capillary density (FCD),LPS-induced cystitis [2],highest overall values for FCD
same,capillary perfusion quantified through functional capillary density (FCD),LPS-induced cystitis [2]; listed as BCP,restored perfusion to levels observed in healthy control animals; also recorded: significant improvement in FCD
same,leukocyte adhesion in bladder venules,"LPS-induced cystitis [3]; LPS-induced cystitis, oral gavage 100 mg/kg Beta-C (with or without 100 mg/kg MSM) 60 minutes prior to LPS",significant decrease in the number of adherent leukocytes
same,capillary perfusion quantified through functional capillary density (FCD),"LPS-induced cystitis [3]; LPS-induced cystitis, oral gavage 100 mg/kg Beta-C (with or without 100 mg/kg MSM) 60 minutes prior to LPS, listed as BCP",no significant differences were observed in the treatment group; also recorded: did not significantly improve FCD
same,leukocyte adhesion in bladder venules,LPS-induced cystitis [3]; [12],did not produce any significant changes in leukocyte adherence
same,capillary perfusion quantified through functional capillary density (FCD),LPS-induced cystitis [3]; [12],significant improvement in functional capillary density
same,capillary perfusion quantified through functional capillary density (FCD),"LPS-induced cystitis [3]; healthy animals (no LPS) administered oral Beta-C 100 mg/kg, listed as BCP",significant improvement in FCD
same,behavioural results for eye opening,"LPS-induced cystitis [4]; oral BCP 100 mg/kg 60 minutes prior to LPS, vs untreated LPS, FIG. 22",significant improvement
same,behavioural results for motor activity,"LPS-induced cystitis [4]; oral BCP 100 mg/kg 60 minutes prior to LPS, vs untreated LPS, FIG. 23",Significant improvements
same,behavioural results for posture,"LPS-induced cystitis [4]; oral BCP 100 mg/kg 60 minutes prior to LPS, vs untreated LPS, FIG. 24",Significant improvements
same,total composite score of behavioural results (behavioural pain score),"LPS-induced cystitis [4]; oral BCP 100 mg/kg 60 minutes prior to LPS, vs untreated LPS, FIG. 25",significant reduction in behavioural pain score
same,behavioural results for breathing rate,"LPS-induced cystitis [4]; oral Beta-C 100 mg/kg 60 minutes prior to LPS, T1 vs untreated LPS, FIG. 21",significant reduction in breathing rate
same,amount of force applied via electronic von Frey aesthesiometer before a response (withdrawal threshold),LPS-induced cystitis [5],significant improvement in withdrawal threshold
same,analgesic and anti-inflammatory effects,[6],analgesic and anti-inflammatory effects
same,local anesthetic actions,[7],dose-dependent local anesthetic actions comparable to procaine
same,leukocyte adhesion in bladder venules,"LPS-induced cystitis [8]; 100 mg/kg Beta-C injected 15 min after LPS, IVM two hours after treatment, vs LPS, FIG. 1",significantly decreased the number of adhering leukocytes
same,capillary perfusion quantified through functional capillary density (FCD),"LPS-induced cystitis [8]; 100 mg/kg Beta-C injected, FIG. 3",restored perfusion to levels observed in healthy control animals
same,leukocyte rolling in bladder venules,"LPS-induced cystitis [8]; 100 mg/kg Beta-C injected, vs endotoxemia group, FIG. 2",did not significantly alter the number of rolling leukocytes
"C[S+](C)[O-] [DMSO, Dimethyl sulfoxide]",leukocyte rolling in bladder venules,LPS-induced cystitis [2],did not improve leukocyte rolling
same,leukocyte adhesion in bladder venules,LPS-induced cystitis [2],retained a high level of activated leukocytes
same,capillary perfusion quantified through functional capillary density (FCD),LPS-induced cystitis [2],"did improve perfusion, it did not return perfusion to the levels observed in healthy control animals"
same,treatment failure rate,severe IC,high failure rate
same,leukocyte adhesion in bladder venules,LPS-induced cystitis [9]; FIG. 6,did not significantly decrease leukocyte adherence
same,leukocyte rolling in bladder venules,LPS-induced cystitis [9]; FIG. 7,did not show any significant difference when compared to the endotoxemia group
same,capillary perfusion quantified through functional capillary density (FCD),LPS-induced cystitis [9]; FIG. 8,"did improve perfusion, it did not return perfusion to the levels observed in healthy control animals"
CS(C)(=O)=O [Methylsulfonylmethane],"effective treatment, number of patients suffering from IC",interstitial cystitis [10],4 out of 6
"CCCCCCCCCCCCCCCC(=O)NCCO [PEA, N-palmitoylethanolamide]",NGF-induced bladder hyper-reflexia and reduction of micturition threshold,[1],attenuated
pentosan polysulfate [PPS],effect of PPS treatment (proportion of patients),interstitial cystitis [11],limited to only a quarter of patients
